Values after ≈ are worked out from the molar mass of the structure shown.
Columns and labels:
E. coli LZ3111 = assay: Antibacterial activity, MIC, quinolone resistant strain (Table 2); assay type: cell-based; settings: Escherichia coli, LZ3111, read-out: MIC LZ3111
Summary of the method: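 MIC values (μg/mL) came from a microbroth dilution assay, scored as the lowest drug concentration at which no growth was visible by eye.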

E. coli 25922 = assay: Antibacterial activity, microbroth dilution MIC (Table 1); assay type: cell-based, Escherichia coli; settings: Escherichia coli; microbroth dilution; control Gram-negative E. coli 25922 strain; read-out: MIC, 25922
Summary of the method: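 Broth microdilution against S. aureus 29213, E. coli 25922 and hypersensitive E. coli BAS849. MIC in μg/mL is the lowest drug concentration preventing macroscopically visible growth under test conditions.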

[1] = system: Staphylococcus aureus (S. aureus) 29213; assay: as above; assay type: cell-based; settings: microbroth dilution, Gram-positive S. aureus 29213, read-out: MIC, 29213
Summary of the method: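 Broth microdilution; endpoint = no macroscopic growth; value = lowest inhibiting concn, μg/mL.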

[2] = system: Escherichia coli (E. coli) BAS849; assay: as above; assay type: cell-based; settings: microbroth dilution, super sensitive Gram-negative E. coli BAS849, read-out: MIC, BAS849
Summary of the method: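 Microbroth dilution was used. MIC, in μg/mL, is the lowest drug concentration preventing macroscopically visible growth under the test conditions.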

A. baumannii MXX2240 = assay: Antibacterial activity, MIC, resistant strain (Table 4); assay type: cell-based; settings: Acinetobacter baumannii, MXX2240; resistant A. baumannii MMX2240, multi-drug resistant clinical isolate; read-out: MIC, MMX2240
From the text: (§1) The antibacterial activity from a microbroth dilution method may be presented as the minimum inhibitory concentration (MIC in μg/mL). The MIC value is the lowest concentration of drug which prevents macroscopically visible growth under test conditions.
(§2) Antibacterial activity of test compounds against the Gram-negative Acinetobacter baumannii (A. baumannii) BAA747 and Klebsiella pneumoniae (K. pneumoniae) 35657 bacterium and the resistant A. baumannii MXX2240 and K. pneumoniae MXX1232 strains are shown in Table 4. The MMX strains are multi-drug resistant clinical isolates.

K. pneumoniae MXX1232 = assay: as above; assay type: cell-based; settings: Klebsiella pneumoniae, MXX1232; resistant K. pneumoniae MMX1232, multi-drug resistant clinical isolate; read-out: MIC, MMX1232
From the text: as §1, §2

[3] = system: Klebsiella pneumoniae (K. pneumoniae) 35657; assay: Antibacterial activity, MIC (Table 4); assay type: cell-based; settings: K. pneumoniae 35657, read-out: MIC, 35657
From the text: as §1, §2

[4] = system: Acinetobacter baumannii (A. baumannii) BAA747; assay: Antibacterial activity, MIC (Table 4); assay type: cell-based; settings: A. baumannii BAA747, read-out: MIC, BAA747
From the text: as §1, §2

[5] = system: Pseudomonas aeruginosa (P. aeruginosa) 27853; assay: Antibacterial activity, MIC (Table 5); assay type: cell-based; settings: P. aeruginosa 27853, read-out: MIC, 27853
From the text: as §1
Antibacterial activity of test compounds against the Gram-negative bacterium Pseudomonas aeruginosa (P. aeruginosa) 27853 is shown in Table 5.

Structure (SMILES)	MIC (E. coli LZ3111)	MIC (E. coli 25922)	MIC [1]	MIC [2]	MIC (A. baumannii MXX2240)	MIC (K. pneumoniae MXX1232)	MIC [3]	MIC [4]	MIC [5]
CCc1c(-c2ccc3c(c2)cc(CN2C[C@@H]4[C@H](C2)[C@H]4NC)n3C)[nH]c(=O)c(C(=O)O)c1O [Cpd 208, 5-ethyl-4-hydroxy-6-(1-methyl-2-(((1R,5S,6s)-6-(methylamino)-3-azabicyclo[3.1.0]hexan-3-yl)methyl)-1H-indol-5-yl)-2-oxo-1,2-dihydropyridine-3-carboxylic acid]	3.5 to 12.5 µg/mL (≈ 8.02 to 28.6 µM)	< 1 µg/mL	3.5 to 12.5 µg/mL (≈ 8.02 to 28.6 µM)	< 1 µg/mL	12.5 to 150 µg/mL (≈ 28.6 to 344 µM)	12.5 to 150 µg/mL (≈ 28.6 to 344 µM)			
Cc1cc2[nH]c(-c3[nH]c(=O)c(C(=O)O)c(O)c3C)cc2cc1F [Cpd 388, 6-(5-fluoro-6-methyl-1H-indol-2-yl)-4-hydroxy-5-methyl-2-oxo-1,2-dihydropyridine-3-carboxylic acid]	12.5 to 150 µg/mL (≈ 39.5 to 474 µM)	12.5 to 150 µg/mL (≈ 39.5 to 474 µM)	12.5 to 150 µg/mL (≈ 39.5 to 474 µM)	3.5 to 12.5 µg/mL (≈ 11.1 to 39.5 µM)	12.5 to 150 µg/mL (≈ 39.5 to 474 µM)	12.5 to 150 µg/mL (≈ 39.5 to 474 µM)	12.5 to 150 µg/mL (≈ 39.5 to 474 µM)	12.5 to 150 µg/mL (≈ 39.5 to 474 µM)	12.5 to 150 µg/mL (≈ 39.5 to 474 µM)
CCc1c(-c2ccc3cc(CN(C)C)[nH]c3c2)[nH]c(=O)c(C(=O)O)c1O.Cl [Cpd 441, 6-(2-((dimethylamino)methyl)-1H-indol-6-yl)-5-ethyl-4-hydroxy-2-oxo-1,2-dihydropyridine-3-carboxylic acid hydrochloride]	12.5 to 150 µg/mL	< 1 µg/mL	1 to 3.5 µg/mL	< 1 µg/mL	3.5 to 12.5 µg/mL	12.5 to 150 µg/mL	< 1 µg/mL	1 to 3.5 µg/mL	12.5 to 150 µg/mL
Cc1c(-c2ccc3c(c2)cc(CN)n3C)[nH]c(=O)c(C(=O)O)c1O [Cpd 358, 6-(2-(aminomethyl)-1-methyl-1H-indol-5-yl)-4-hydroxy-5-methyl-2-oxo-1,2-dihydropyridine-3-carboxylic acid]	1 to 3.5 µg/mL (≈ 3.05 to 10.7 µM)	3.5 to 12.5 µg/mL (≈ 10.7 to 38.2 µM)	12.5 to 150 µg/mL (≈ 38.2 to 458 µM)	1 to 3.5 µg/mL (≈ 3.05 to 10.7 µM)	3.5 to 12.5 µg/mL (≈ 10.7 to 38.2 µM)	12.5 to 150 µg/mL (≈ 38.2 to 458 µM)	1 to 3.5 µg/mL (≈ 3.05 to 10.7 µM)	12.5 to 150 µg/mL (≈ 38.2 to 458 µM)	12.5 to 150 µg/mL (≈ 38.2 to 458 µM)
Cc1c(-c2ccc3nn(C)cc3c2)[nH]c(=O)c(C(=O)O)c1O [Cpd 395, 4-hydroxy-5-methyl-6-(2-methyl-2H-indazol-5-yl)-2-oxo-1,2-dihydropyridine-3-carboxylic acid]	1 to 3.5 µg/mL (≈ 3.34 to 11.7 µM)	12.5 to 150 µg/mL (≈ 41.8 to 501 µM)	3.5 to 12.5 µg/mL (≈ 11.7 to 41.8 µM)	12.5 to 150 µg/mL (≈ 41.8 to 501 µM)	3.5 to 12.5 µg/mL (≈ 11.7 to 41.8 µM)	12.5 to 150 µg/mL (≈ 41.8 to 501 µM)	12.5 to 150 µg/mL (≈ 41.8 to 501 µM)	12.5 to 150 µg/mL (≈ 41.8 to 501 µM)	12.5 to 150 µg/mL (≈ 41.8 to 501 µM)
CCc1c(-c2ccc3c(ccn3-c3ccc(C(F)(F)F)cc3)c2)[nH]c(=O)c(C(=O)O)c1O [Cpd 437, 5-ethyl-4-hydroxy-2-oxo-6-(1-(4-(trifluoromethyl)phenyl)-1H-indol-5-yl)-1,2-dihydropyridine-3-carboxylic acid]	12.5 to 150 µg/mL (≈ 28.3 to 339 µM)	12.5 to 150 µg/mL (≈ 28.3 to 339 µM)	3.5 to 12.5 µg/mL (≈ 7.91 to 28.3 µM)	< 1 µg/mL	12.5 to 150 µg/mL (≈ 28.3 to 339 µM)	12.5 to 150 µg/mL (≈ 28.3 to 339 µM)	12.5 to 150 µg/mL (≈ 28.3 to 339 µM)	12.5 to 150 µg/mL (≈ 28.3 to 339 µM)	12.5 to 150 µg/mL (≈ 28.3 to 339 µM)
CCc1cc(C(=O)O)c(=O)[nH]c1-c1cnc2c(c1)ncn2C [Cpd 52, 5-ethyl-6-(3-methyl-3H-imidazo[4,5-b]pyridin-6-yl)-2-oxo-1,2-dihydropyridine-3-carboxylic acid]	12.5 to 150 µg/mL (≈ 41.9 to 503 µM)	12.5 to 150 µg/mL (≈ 41.9 to 503 µM)	12.5 to 150 µg/mL (≈ 41.9 to 503 µM)	12.5 to 150 µg/mL (≈ 41.9 to 503 µM)	12.5 to 150 µg/mL (≈ 41.9 to 503 µM)	12.5 to 150 µg/mL (≈ 41.9 to 503 µM)	12.5 to 150 µg/mL (≈ 41.9 to 503 µM)	12.5 to 150 µg/mL (≈ 41.9 to 503 µM)	12.5 to 150 µg/mL (≈ 41.9 to 503 µM)
CCc1c(-c2ccc3[nH]c(-c4ccc(C#N)cc4)cc3c2)[nH]c(=O)c(C(=O)O)c1O [Cpd 453, 6-(2-(4-cyanophenyl)-1H-indol-5-yl)-5-ethyl-4-hydroxy-2-oxo-1,2-dihydropyridine-3-carboxylic acid]	12.5 to 150 µg/mL (≈ 31.3 to 376 µM)	12.5 to 150 µg/mL (≈ 31.3 to 376 µM)	1 to 3.5 µg/mL (≈ 2.5 to 8.76 µM)	< 1 µg/mL	12.5 to 150 µg/mL (≈ 31.3 to 376 µM)	12.5 to 150 µg/mL (≈ 31.3 to 376 µM)	12.5 to 150 µg/mL (≈ 31.3 to 376 µM)	12.5 to 150 µg/mL (≈ 31.3 to 376 µM)	12.5 to 150 µg/mL (≈ 31.3 to 376 µM)

Reference: US9409905B2, “Antibacterial compounds and methods for use” (PTC THERAPEUTICS, INC., priority 2011, dated 2016)
